{"source": "paper PMC10917278", "about": "“Structural insights into the modulation Of SOD1 aggregation By a fungal metabolite Phialomustin-B: Therapeutic potential in ALS” (PLOS ONE, 2024)", "key": {"SOD1^K9F": {"target": "T1, SOD1^K9F (Homo sapiens, UniProt P00441, K10F)", "T1 construct": "His-tag (cleaved yes); made in house; host or cells: E. coli BL21-DE3", "T1 sequence (P00441 whole entry K10F)": "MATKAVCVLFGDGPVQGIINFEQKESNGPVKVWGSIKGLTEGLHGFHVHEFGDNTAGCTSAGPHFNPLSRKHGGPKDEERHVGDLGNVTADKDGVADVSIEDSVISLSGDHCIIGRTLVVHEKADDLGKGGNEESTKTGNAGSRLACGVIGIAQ", "assay": "MST binding assay, site-specific mutant SOD1^K9F", "settings": "PBS buffer, mutant 25 nM, PB 30.5 nM to 250 μM, 25 °C", "procedure": "(§1) To further validate the binding of PB to SOD1, site-directed mutagenesis was performed for the interacting residues at the binding sites of PB. The point mutations generated on the SOD1 protein are K9F, G10P, L42R, and A123F. The MST assay was carried out on these mutants against PB (Fig 5). The dose-response curve with the highest signal-to-noise ratio, high response amplitude, and lowest error rate was selected for measuring the binding affinity (Kd) value. […] Binding at the electrostatic loop is affected majorly by mutating residues at A123 to phenylalanine and L42 to arginine. […] Taken together, the binding affinities of these mutants confirm the ligand bindings at these sites of SOD1 are specific.\n(§2) Fig 5 MST interaction analysis of fluorescently labeled SOD1 mutants against PB. The binding of PB to fluorescently Cys-labeled SOD1- variants is quantified in PBS buffer. The concentration of PB varied from 30.5 nM to 250 μM, while the respective mutants were kept constant at 25 nM. MST experiments were conducted at 20% LED excitation and medium MST power at 25 °C. […] Error bars indicate the standard error of the mean, SEM (n = 3). […] The ligand PB is printed only in the titles of panels a-d, so the mutant names are used as the substance labels.\n(§3) Binding studies were performed for SOD1^WT and the ligands using microscale thermophoresis (MST). […]"}, "SOD1^G10P": {"target": "T2, SOD1^G10P (Homo sapiens, UniProt P00441, G11P)", "T2 construct": "His-tag (cleaved yes); made in house; host or cells: E. coli BL21-DE3", "T2 sequence (P00441 whole entry G11P)": "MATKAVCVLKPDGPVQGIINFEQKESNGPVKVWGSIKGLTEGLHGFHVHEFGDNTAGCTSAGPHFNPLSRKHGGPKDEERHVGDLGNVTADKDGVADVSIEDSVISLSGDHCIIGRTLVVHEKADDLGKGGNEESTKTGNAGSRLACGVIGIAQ", "assay": "MST binding assay, site-specific mutant SOD1^G10P", "settings": "PBS buffer, mutant 25 nM, PB 30.5 nM to 250 μM, 25 °C, SEM n = 3, read-out: binding affinity Kd", "procedure": "as §1, §2, §3"}, "SOD1^L42R": {"target": "T3, SOD1^L42R (Homo sapiens, UniProt P00441, L43R)", "T3 construct": "His-tag (cleaved yes); made in house; host or cells: E. coli BL21-DE3", "T3 sequence (P00441 whole entry L43R)": "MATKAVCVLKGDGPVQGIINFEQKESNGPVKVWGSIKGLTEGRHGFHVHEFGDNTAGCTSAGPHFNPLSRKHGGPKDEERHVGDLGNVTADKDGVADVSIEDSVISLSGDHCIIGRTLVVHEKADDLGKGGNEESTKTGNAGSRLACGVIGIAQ", "assay": "MST binding assay, site-specific mutant SOD1^L42R", "settings": "PBS buffer, mutant 25 nM, PB 30.5 nM to 250 μM, 25 °C, SEM n = 3, read-out: binding affinity Kd", "procedure": "as §1, §2, §3"}}}
{"smiles": "CCCC[C@H](C)/C=C(C)/C=C/C(=O)O", "note": "[PB, (S, 2E, 4E)-4,6-dimethyldeca-2,4-dienoic acid]", "values": [{"measurement": "binding affinity Kd", "setting": "SOD1^K9F", "result": "no binding"}, {"measurement": "Kd", "setting": "SOD1^G10P", "result": "15.9 ± 2.65", "unit": "µM"}, {"measurement": "Kd", "setting": "SOD1^L42R", "result": "225 ± 4.29", "unit": "µM"}]}
